Results reported in ChEMBL document CHEMBL3044820, “Evaluation of Benzenesulfonanilide Derivatives for the Control of Crucifers Clubroot” (1996).

Tests used:
Type in all cases: functional
Plasmodiophora brassicae [1] = assay: Fungicidal activity against clubroot disease causing Plasmodiophora brassicae infested Brassica campestris under greenhouse condition assessed as disease incidence at 4 kg a.i/ha treated to soil measured after 40 to 50 days
Plasmodiophora brassicae [2] = assay: Fungicidal activity against clubroot disease causing Plasmodiophora brassicae infested Brassica campestris under greenhouse condition assessed as disease incidence at 2 kg a.i/ha treated to soil measured after 40 to 50 days
Plasmodiophora brassicae [3] = assay: Fungicidal activity against clubroot disease causing Plasmodiophora brassicae infested Brassica campestris under greenhouse condition assessed as disease incidence at 0.5 kg a.i/ha treated to soil measured after 40 to 50 days

| SMILES | Activity (Plasmodiophora brassicae [1]) [%] | Activity (Plasmodiophora brassicae [2]) [%] | Activity (Plasmodiophora brassicae [3]) [%] |
| --- | --- | --- | --- |
| Cc1ccc(C)c(S(=O)(=O)Nc2ccc([N+](=O)[O-])cc2Cl)c1 | >91 | >91 | 0 |
| Cc1ccc(S(=O)(=O)Nc2ccc([N+](=O)[O-])cc2Cl)cc1[N+](=O)[O-] | >91 | >91 | 26 |
| O=[N+]([O-])c1ccc(NS(=O)(=O)c2cc(C(F)(F)F)ccc2Cl)c(Cl)c1 | >91 | >91 | 51 |
| O=[N+]([O-])c1cc(Cl)c(NS(=O)(=O)c2ccc(Cl)cc2)c(Cl)c1 | >91 | >91 | 0 |
| N#Cc1ccc(NS(=O)(=O)c2cccc(C(F)(F)F)c2)c(Cl)c1 | >91 | 51 | 0 |
| O=S(=O)(Nc1ccc(C(F)(F)F)cc1Cl)c1cc(C(F)(F)F)ccc1Cl | >91 | >91 | >91 |
| Cc1ccc(S(=O)(=O)Nc2ccc(C(F)(F)F)cc2)cc1 | 26 | 26 | 0 |
| O=S(=O)(Nc1cc(C(F)(F)F)ccc1Cl)c1cccc(C(F)(F)F)c1 | >91 | >91 | 0 |
| Cc1ccc(S(=O)(=O)Nc2ccc([N+](=O)[O-])cc2Cl)c(C)c1 | >91 | >91 | 0 |
| O=[N+]([O-])c1ccc(NS(=O)(=O)c2cccc(C(F)(F)F)c2)c(F)c1 | >91 | >91 | >91 |
| O=S(=O)(Nc1ccc(C(F)(F)F)cc1Cl)c1ccc(Cl)c(Cl)c1 | >91 | >91 | 51 |
| O=S(=O)(Nc1ccc(C(F)(F)F)cc1Cl)c1ccc(Cl)c(C(F)(F)F)c1 | >91 | >91 | 26 |
| O=S(=O)(Nc1ccc(C(F)(F)F)cc1Cl)c1ccc(Cl)cc1 | >91 | >91 | 26 |
| Cc1cc([N+](=O)[O-])ccc1NS(=O)(=O)c1cccc(C(F)(F)F)c1 | >91 | >91 | 0 |
| Cc1cc([N+](=O)[O-])ccc1NS(=O)(=O)c1ccc(Cl)c(C(F)(F)F)c1 | >91 | >91 | 26 |
| Cc1cc([N+](=O)[O-])ccc1NS(=O)(=O)c1cc(C(F)(F)F)ccc1Cl | >91 | >91 | 0 |
| O=[N+]([O-])c1ccc(NS(=O)(=O)c2cc(Cl)c(Cl)cc2Cl)c(Cl)c1 | >91 | >91 | 51 |
| Cc1cc([N+](=O)[O-])ccc1NS(=O)(=O)c1cc(Cl)ccc1Cl | >91 | >91 | 51 |
| Cc1ccc([N+](=O)[O-])cc1S(=O)(=O)Nc1c(Cl)cc([N+](=O)[O-])cc1Cl | >91 | >91 | 26 |
| O=[N+]([O-])c1ccc(NS(=O)(=O)c2cccc(C(F)(F)F)c2)c(Cl)c1 | >91 | >91 | >91 |
